# Test results published in patent US11718589B2, “Compositions and methods of modulating short-chain dehydrogenase” (CASE WESTERN RESERVE UNIVERSITY, priority 2017, dated 2023).
# What was measured:
# [1] = test system: PGE2 in A549 cell culture; assay: Induction of PGE2 in A549 cell culture; assay type: cell-based; settings: A549 cells; for induction of PGE2 in A549 cell culture at 0.1 μM (fold): 0.1 μM compound; for induction of PGE2 in A549 cell culture at 2.5 μM (fold): 2.5 μM compound
# Method: This Example provides data on two groups (Table 1 and Table 2) of structural analogues of identified 15-PGDH inhibitors. Data provided is the IC50 of each compound for inhibiting enzymatic activity of recombinant 15-PGDH in an in vitro assay. Recombinant 15-PGDH is human unless otherwise specified. Additionally, the example provides data for selected compounds on induction of PGE2 in A549 cell culture administered 2.5 μM or 0.1 μM of the selected compound.
# [2] = target: recombinant 15-PGDH (Homo sapiens (Human), UniProt P15428); assay: Enzyme inhibition of recombinant 15-PGDH, in vitro assay; assay type: biochemical; settings: recombinant human 15-PGDH; read-out: Enzyme inhibition (IC50)
# Chain of recombinant 15-PGDH (P15428 whole entry): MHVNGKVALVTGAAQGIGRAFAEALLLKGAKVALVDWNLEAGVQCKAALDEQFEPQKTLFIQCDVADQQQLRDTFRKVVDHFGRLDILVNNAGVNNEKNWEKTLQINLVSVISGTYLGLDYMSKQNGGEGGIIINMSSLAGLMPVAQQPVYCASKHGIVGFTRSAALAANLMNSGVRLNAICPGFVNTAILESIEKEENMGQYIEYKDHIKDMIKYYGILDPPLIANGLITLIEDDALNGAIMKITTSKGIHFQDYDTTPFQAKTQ
IC50 [2],SMILES,induction of PGE2 in A549 cell culture at 0.1 μM (fold) [1],induction of PGE2 in A549 cell culture at 2.5 μM (fold) [1]
–,CCCC[S+]([O-])c1cc2nc(-c3ccc(OC)cc3)cc(-c3ccccc3)n2n1 (stereo not shown) [5a],1.08 fold,1.69 fold
100 nM,COc1ccc(-c2cc(C(F)(F)F)n3nc(C(=O)N4CCCC(F)(F)C4)cc3n2)cc1 [65a],–,–
4 to 20 nM,O=C(c1ccc2ncc(-c3cccc(F)c3)nc2c1)N1CCCCC1 [41b],–,–
> 2500 nM,O=C(c1cc2nc(-c3cncnc3)cc(C(F)(F)F)n2n1)N1CCCCC1 [37a],–,–
20 to 100 nM,COc1ccc(-c2cc(C(F)(F)F)n3nc(C(=O)N4CCCC(CF)C4)cc3n2)cc1 (stereo not shown) [58a],–,–
4 to 20 nM,COc1ccc(-c2cc(C(F)(F)F)n3nc(C(=O)N4CCCC(C)(C)C4)cc3n2)cc1 [63a],–,–
20 nM,O=C(c1ccc2nc(-c3ccccc3)c(-c3ccncc3)nc2c1)N1CCCCC1 [34b],–,–
16 nM,O=C(c1ccc2ncc(-c3cc(F)cc(F)c3)nc2c1)N1CCCCC1 [47b],–,–
14 nM,O=C(c1cc2nc(-c3nccs3)cc(C(F)(F)F)n2n1)N1CCCCC1 [45a],–,–
4 nM,CNC(=O)c1ccc(-c2cnc3ccc(C(=O)N4CCCCC4)cc3n2)cc1 [80b],–,–
> 2500 nM,COC(=O)CNC(=O)c1ccc2nc(-c3ccccc3)c(-c3ccccc3)nc2c1 [16b],–,–
> 2500 nM,O=C(c1cc2nc(-c3ccccc3)cc(C(F)(F)F)n2n1)N1CCCCC1 [61a],–,–
14.6 nM,COc1ccc(-c2cc(C(F)(F)F)n3nc(C(=O)N4CCCC(C)C4)cc3n2)cc1 (stereo not shown) [19a],–,–
> 2500 nM,O=C(O)c1ccc2nc(-c3ccccc3)c(-c3ccccc3)nc2c1 [21b],–,–
500 to 2500 nM,CCCC[S+]([O-])c1cc2nc(-c3ccc(OC)cc3)cc(-c3cnn(C)c3)n2n1 (stereo not shown) [53a],–,–
24 nM,COc1ccc(-c2cc(C(F)(F)F)n3nc(C(=O)N4CCCCC4)cc3n2)cc1 [1a],1.29 fold,1.89 fold
500 to 2500 nM,CCOc1ccc(-c2cc(C(F)(F)F)n3nc(C(=O)N4CCCCC4)cc3n2)cc1 [69a],–,–
–,CCCC[S+]([O-])c1cc2nc(-c3ccc(OC)cc3)cc(C(F)(F)F)n2n1 (stereo not shown) [3a],1.45 fold,2.13 fold

IC50 [2],SMILES,induction of PGE2 in A549 cell culture at 0.1 μM (fold) [1],induction of PGE2 in A549 cell culture at 2.5 μM (fold) [1]
4 to 20 nM,CCCC[S+]([O-])c1cc2nc(-c3ccc(OC)cc3)cc(-c3cccn3C)n2n1 (stereo not shown) [54a],–,–
~100 nM,COc1ccc(-c2cc(-c3ccncc3)n3nc(C(=O)N4CCCCC4)cc3n2)cc1 [22a],–,–
~4 nM,CCOC(=O)c1[nH]c2ccc(-c3cnc4ccc(C(=O)N5CCCCC5)cc4n3)cc2c1C [91b],–,–
100 to 500 nM,COc1ccc(-c2cc(-c3cncnc3)n3nc(C(=O)N4CCCCC4)cc3n2)cc1 [28a],–,–
100 to 500 nM,COc1ccc(-c2cc(C(F)(F)F)n3nc(C(=O)N4CCC(NC(=O)OC(C)(C)C)CC4)cc3n2)cc1 [14a],–,–
–,O=C(c1ccc2nc(-c3ccccc3)c(-c3ccccc3)nc2c1)N1CCCCC1 [1b],1.11 fold,1.87 fold
> 2500 nM,COc1ccc(-c2cc(C(F)(F)F)n3nc(C(=O)N4CCCC4)cc3n2)cc1 [9a],–,–
20 to 100 nM,COc1ccc(-c2cc(OC)n3nc(C(=O)N4CCCCC4)cc3n2)cc1 [33a],–,–
100 nM,CCN(CC)C(=O)c1cc2nc(-c3ccc(OC)cc3)cc(C(F)(F)F)n2n1 [8a],–,–
4 to 20 nM,CCCC[S+]([O-])c1cc2nc(-c3ccc(OC)cc3)cc(-c3ccnn3C)n2n1 (stereo not shown) [72a],–,–
768 nM,O=C(c1cc2ncc(-c3ccccc3)cn2n1)N1CCCCC1 [41a],–,–
100 to 500 nM,COc1ccc(-c2cc(C(F)(F)F)n3nc(C(=O)N4CCC(F)(F)CC4)cc3n2)cc1 [59a],–,–
4 to 20 nM,Nc1ccc(-c2cnc3ccc(C(=O)N4CCCCC4)cc3n2)cc1 [63b],–,–
20 to 100 nM,COc1ccc(-c2cc(-c3cnn(C)c3)n3nc(C(=O)N4CCCCC4)cc3n2)cc1 [29a],–,–
~4 nM,Cn1nccc1-c1nc(-c2ccccc2)nc2cc(C(=O)N3CCCCC3)ccc12 [90b],–,–
4 nM,O=C(c1ccc2ncc(-c3ccc(F)cc3F)nc2c1)N1CCCCC1 [45b],–,–
20 to 100 nM,O=C(c1ccc2nc(-c3ccccc3)c(-c3ccc(F)nc3)nc2c1)N1CCCCC1 [35b],–,–
